Results on 33 compounds are retold here after patent publication US10752624B2, “Kinase inhibitors” (Origenis GmbH, priority 2012, dated 2020).

A value given as a limit tells only on which side of the number the result lay.

LRRK2, sequence (Q5S007 970-2527 limits assumed): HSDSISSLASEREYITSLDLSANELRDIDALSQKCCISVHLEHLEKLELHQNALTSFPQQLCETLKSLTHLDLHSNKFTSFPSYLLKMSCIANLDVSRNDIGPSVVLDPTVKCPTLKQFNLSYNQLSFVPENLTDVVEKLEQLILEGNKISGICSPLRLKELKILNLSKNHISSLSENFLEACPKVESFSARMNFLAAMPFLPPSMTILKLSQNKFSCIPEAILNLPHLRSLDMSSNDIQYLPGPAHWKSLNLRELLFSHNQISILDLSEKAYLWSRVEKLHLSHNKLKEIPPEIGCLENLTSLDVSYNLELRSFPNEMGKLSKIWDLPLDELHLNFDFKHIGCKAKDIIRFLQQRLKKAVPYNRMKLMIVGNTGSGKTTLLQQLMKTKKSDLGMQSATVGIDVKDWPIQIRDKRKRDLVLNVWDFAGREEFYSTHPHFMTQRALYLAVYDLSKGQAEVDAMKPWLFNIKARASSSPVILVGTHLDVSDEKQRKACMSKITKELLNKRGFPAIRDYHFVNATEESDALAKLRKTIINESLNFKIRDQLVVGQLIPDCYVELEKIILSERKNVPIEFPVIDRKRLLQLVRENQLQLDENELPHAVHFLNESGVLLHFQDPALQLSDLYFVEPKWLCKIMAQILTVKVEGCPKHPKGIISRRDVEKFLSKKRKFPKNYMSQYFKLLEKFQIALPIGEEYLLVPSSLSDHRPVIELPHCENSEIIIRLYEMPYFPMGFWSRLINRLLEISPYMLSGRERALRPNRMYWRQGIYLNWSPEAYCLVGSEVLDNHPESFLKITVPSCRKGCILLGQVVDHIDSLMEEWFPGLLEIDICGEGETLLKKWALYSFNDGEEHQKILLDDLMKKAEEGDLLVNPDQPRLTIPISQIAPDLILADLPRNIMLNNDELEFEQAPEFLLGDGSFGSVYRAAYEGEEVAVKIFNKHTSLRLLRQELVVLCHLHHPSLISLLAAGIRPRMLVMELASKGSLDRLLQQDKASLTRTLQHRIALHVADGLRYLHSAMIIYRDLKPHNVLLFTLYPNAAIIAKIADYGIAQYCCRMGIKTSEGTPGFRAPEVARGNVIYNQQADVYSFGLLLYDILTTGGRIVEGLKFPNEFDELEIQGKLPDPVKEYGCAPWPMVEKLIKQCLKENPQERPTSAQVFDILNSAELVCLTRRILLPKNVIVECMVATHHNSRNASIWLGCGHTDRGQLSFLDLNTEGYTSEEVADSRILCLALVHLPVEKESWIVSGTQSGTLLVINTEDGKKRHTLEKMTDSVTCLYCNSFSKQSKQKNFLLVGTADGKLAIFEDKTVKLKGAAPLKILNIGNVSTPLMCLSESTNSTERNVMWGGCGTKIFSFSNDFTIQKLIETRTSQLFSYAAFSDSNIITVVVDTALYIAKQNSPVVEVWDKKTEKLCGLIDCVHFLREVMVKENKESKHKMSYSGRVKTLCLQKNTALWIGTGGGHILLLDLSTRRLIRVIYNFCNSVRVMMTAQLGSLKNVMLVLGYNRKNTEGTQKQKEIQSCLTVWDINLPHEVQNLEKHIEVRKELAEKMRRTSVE

The target of the experiment is LRRK2 (Homo sapiens, UniProt Q5S007). The experiment in a line: LRRK2-LRRK2 G2019S-Assay (LanthaScreen Eu Kinase Binding Assay). The conditions noted are these: 5 nM LRRK2, 10 nM tracer 236, 2 nM EU-Anti-GST antibody, 1 h at RT; read-out: LRRK2 Activities: IC50. As for the experimental part:
In the assay LanthaScreen™ Eu Kinase Binding Assay by Invitrogen Corporation (Carlsbad) the effect of invention of a compound on the phosphorylation is determined by measurement of fluorescence intensity emission ratio based on the binding and displacement of a proprietary, Alexa Fluor® 647-labeled, ATP-competitive kinase inhibitor scaffold (kinase tracer) to the kinase of interest. Binding of the tracer to the kinase is detected using a europium-labeled anti-tag antibody, which binds to the kinase of interest. Simultaneous binding of both the tracer and antibody to the kinase results in a high degree of FRET (fluorescence resonance energy transfer) from the europium (Eu) donor fluorophore to the Alexa Fluor® 647 acceptor fluorophore on the kinase tracer. Binding of an inhibitor to the kinase competes for binding with the tracer, resulting in a loss of FRET. The fluorescence intensity ratio is directly proportional to the amount of peptide phosphorylation.
To the wells of an 384 well small volume plate (Greiner, Frickenhausen) are added (i) the compound under test in 5% DMSO/distilled water (5 μl), (ii) 5 μl of the kinase antibody mixture resulting in a final concentration 5 nM LRRK2 or their mutants, 2 nM EU-Anti-GST antibody in 1× kinase buffer A. The reaction was started with addition of (iii) 5 μl resulting in a final concentration of 10 nM tracer 236. The assay plate was incubated at RT for 1 h and fluorescence intensity readings were collected using a TECAN M1000 at two wavelengths of λex 340/λem 615 nm and λex 340/λem 665 nm with a delay time of 100 μs and an integration time of 200 μs after 60 minutes. The emission ratio was calculated by division of the acceptor/tracer emission ([…]) by the antibody/donor emission ([…]). The inhibitor concentration was plotted versus the emission ratio to determine the IC50 using XLFit 5.0 (IDBS, Guildford) to fit to a sigmoidal dose response curve with a variable slope.
By IC50 is commonly meant the concentration that inhibits the measured activity by half. As for `CC(C)n1ncc(Nc2nc3ccc(S(C)(=O)=O)cc3c3cn[nH]c23)c1C(N)=O` [Example 251, 1-isopropyl-4-((8-(methylsulfonyl)-3H-pyrazolo[3,4-c]quinolin-4-yl)amino)-1H-pyrazole-5-carboxamide], the IC50 was 100 to 1000 nM. As for `COc1cccc2nc(Nc3cccc(C(C)(C)C#N)c3)c3[nH]ncc3c12` [Example 33, 2-(3-((9-methoxy-3H-pyrazolo[3,4-c]quinolin-4-yl)amino)phenyl)-2-methylpropanenitrile], the half-inhibitory concentration (IC50) fell in the range of 100 to 1000 nM. For the compound `COCCn1ncc(Nc2nc3cc(S(C)(=O)=O)ccc3c3cn[nH]c23)c1Cl` [Example 243, N-(5-chloro-1-(2-methoxyethyl)-1H-pyrazol-4-yl)-7-(methylsulfonyl)-3H-pyrazolo[3,4-c]quinolin-4-amine], the IC50 fell in the range of 10 to 100 nM. Next, `COCCn1cc(Nc2nc3cccc(OC)c3c3cn[nH]c23)c(C(F)(F)F)n1` [Example 267, 9-methoxy-N-(1-(2-methoxyethyl)-3-(trifluoromethyl)-1H-pyrazol-4-yl)-3H-pyrazolo[3,4-c]quinolin-4-amine]: 100 to 1000 nM. Take `COc1ccc2nc(Nc3ccc(N4CCC(N5CCN(C)CC5)CC4)nc3)c3n[nH]cc3c2c1` [Example 96, 8-methoxy-N-(6-(4-(4-methylpiperazin-1-yl)piperidin-1-yl)pyridin-3-yl)-2H-pyrazolo[3,4-c]quinolin-4-amine]: the IC50 lay in the range of 100 to 1000 nM. As to `Cc1cccc2nc(Nc3cccc(S(C)(=O)=O)c3)c3[nH]ncc3c12` [Example 88, 9-methyl-N-(3-(methylsulfonyl)phenyl)-3H-pyrazolo[3,4-c]quinolin-4-amine], the IC50 was 100 to 1000 nM.

For the compound `CC(=O)N1CCC(n2cc(Nc3nc4ccc(S(C)(=O)=O)cc4c4cn[nH]c34)cn2)CC1` [Example 155, 1-(4-(4-((8-(methylsulfonyl)-3H-pyrazolo[3,4-c]quinolin-4-yl)amino)-1H-pyrazol-1-yl)piperidin-1-yl)ethan-1-one], the IC50 is less than 10 nM. With `COc1cc(C(=O)N2CCOCC2)ccc1Nc1nc2cccc(OC)c2c2cn[nH]c12` [Example 200, (3-methoxy-4-((9-methoxy-3H-pyrazolo[3,4-c]quinolin-4-yl)amino)phenyl)(morpholino)methanone], the IC50 lay in the range of 10 to 100 nM. As to `Cc1nn(C(C)C)cc1Nc1nc2ccc(S(C)(=O)=O)cc2c2cn[nH]c12` [Example 213, N-(1-isopropyl-3-methyl-1H-pyrazol-4-yl)-8-(methylsulfonyl)-3H-pyrazolo[3,4-c]quinolin-4-amine], the IC50 is less than 10 nM. In the case of `Fc1cccc2nc(Nc3ccc(N4CCOCC4)nc3)c3[nH]ncc3c12` [Example 11, 9-fluoro-N-(6-morpholinopyridin-3-yl)-3H-pyrazolo[3,4-c]quinolin-4-amine], the IC50 was in the range of 100 to 1000 nM.

On to `COc1cccc2nc(Nc3cnn(C4CCOCC4)c3)c3[nH]ncc3c12` [Example 142, 9-methoxy-N-(1-(tetrahydro-2H-pyran-4-yl)-1H-pyrazol-4-yl)-3H-pyrazolo[3,4-c]quinolin-4-amine], for which the IC50 is less than 10 nM. Next, `COc1ccc2nc(Nc3ccc(N4CCOCC4)c(S(C)(=O)=O)c3)c3n[nH]cc3c2c1` [Example 90, 8-methoxy-N-(3-(methylsulfonyl)-4-morpholinophenyl)-2H-pyrazolo[3,4-c]quinolin-4-amine]: 100 to 1000 nM; `CS(=O)(=O)c1ccc2nc(Nc3cc(S(C)(=O)=O)sc3Cl)c3[nH]ncc3c2c1` [Example 230, N-(2-chloro-5-(methylsulfonyl)thiophen-3-yl)-8-(methylsulfonyl)-3H-pyrazolo[3,4-c]quinolin-4-amine]: 10 to 100 nM. For `COc1ccc2nc(Nc3cccc(CN4CCOCC4)c3)c3n[nH]cc3c2c1` [Example 23, 8-methoxy-N-(3-(morpholinomethyl)phenyl)-2H-pyrazolo[3,4-c]quinolin-4-amine], the IC50 fell in the range of 100 to 1000 nM. As for `CC(=O)N1CCN(c2ccc(Nc3nc4cccc(S(C)(=O)=O)c4c4cn[nH]c34)cc2)CC1` [Example 93, 1-(4-(4-((9-(methylsulfonyl)-3H-pyrazolo[3,4-c]quinolin-4-yl)amino)phenyl)piperazin-1-yl)ethan-1-one], the IC50 is 10 to 100 nM. For the compound `COc1cccc2nc(Nc3ccc(N4CCOCC4)nc3)c3[nH]ncc3c12` [Example 17, 9-methoxy-N-(6-morpholinopyridin-3-yl)-3H-pyrazolo[3,4-c]quinolin-4-amine], the IC50 fell in the range of 10 to 100 nM. Under `COc1ccc2nc(Nc3ccc(-c4ncco4)cc3)c3n[nH]cc3c2c1` [Example 36, 8-methoxy-N-(4-(oxazol-2-yl)phenyl)-2H-pyrazolo[3,4-c]quinolin-4-amine] stands 100 to 1000 nM; under `Cc1nn(CC(C)(C)O)cc1Nc1nc2ccc(S(C)(=O)=O)cc2c2c[nH]nc12` [Example 325, 2-methyl-1-(3-methyl-4-((8-(methylsulfonyl)-2H-pyrazolo[3,4-c]quinolin-4-yl)amino)-1H-pyrazol-1-yl)propan-2-ol], 100 to 1000 nM; under `COc1cccc2nc(Nc3ccc(N4CCCC4=O)cc3)c3[nH]ncc3c12` [Example 68, 1-(4-((9-methoxy-3H-pyrazolo[3,4-c]quinolin-4-yl)amino)phenyl)pyrrolidin-2-one], 10 to 100 nM. `COc1cccc2nc(Nc3cnn(C(C)C)c3C)c3[nH]ncc3c12` [Example 219, N-(1-isopropyl-5-methyl-1H-pyrazol-4-yl)-9-methoxy-3H-pyrazolo[3,4-c]quinolin-4-amine]: the IC50 was less than 10 nM. Turning to `COc1cccc2nc(Nc3cn(C4CCOCC4)nc3C)c3[nH]ncc3c12` [Example 207, 9-methoxy-N-(3-methyl-1-(tetrahydro-2H-pyran-4-yl)-1H-pyrazol-4-yl)-3H-pyrazolo[3,4-c]quinolin-4-amine], the IC50 lay within 10 to 100 nM. As to `COc1ccc2nc(Nc3cn(C)nc3C)c3n[nH]cc3c2c1` [Example 105, N-(1,3-dimethyl-1H-pyrazol-4-yl)-8-methoxy-2H-pyrazolo[3,4-c]quinolin-4-amine], the IC50 was 100 to 1000 nM. Next, `COc1cccc2c1nc(Nc1cnn(C(C)C)c1)c1[nH]ncc12` [Example 305, N-(1-isopropyl-1H-pyrazol-4-yl)-6-methoxy-3H-pyrazolo[3,4-c]quinolin-4-amine]: 10 to 100 nM; `COc1ccc2nc(Nc3cccc(C(C)(C)C#N)c3)c3n[nH]cc3c2c1` [Example 24, 2-(3-((8-methoxy-2H-pyrazolo[3,4-c]quinolin-4-yl)amino)phenyl)-2-methylpropanenitrile]: 100 to 1000 nM. For the compound `COc1cccc2nc(Nc3ccc4c(c3)COC4)c3[nH]ncc3c12` [Example 18, N-(1,3-dihydroisobenzofuran-5-yl)-9-methoxy-3H-pyrazolo[3,4-c]quinolin-4-amine], the IC50 was in the range of 10 to 100 nM. Under `Cc1c(Nc2nc3cc(S(C)(=O)=O)ccc3c3cn[nH]c23)cnn1C(C)C` [Example 244, N-(1-isopropyl-5-methyl-1H-pyrazol-4-yl)-7-(methylsulfonyl)-3H-pyrazolo[3,4-c]quinolin-4-amine] stands 10 to 100 nM; under `CS(=O)(=O)c1ccc2nc(Nc3ccc4c(c3)N(C(=O)C3CC3)CCC4)c3n[nH]cc3c2c1` [Example 350, cyclopropyl(7-((8-(methylsulfonyl)-2H-pyrazolo[3,4-c]quinolin-4-yl)amino)-3,4-dihydroquinolin-1(2H)-yl)methanone], 100 to 1000 nM; under `COc1cccc2nc(Nc3ccc4c(c3)S(=O)(=O)CC4)c3[nH]ncc3c12` [Example 19, 6-((9-methoxy-3H-pyrazolo[3,4-c]quinolin-4-yl)amino)-2,3-dihydrobenzo[b]thiophene 1,1-dioxide], 10 to 100 nM. As to `COCCn1ncc(Nc2nc3cccc(OC)c3c3cn[nH]c23)c1Br` [Example 275, N-(5-bromo-1-(2-methoxyethyl)-1H-pyrazol-4-yl)-9-methoxy-3H-pyrazolo[3,4-c]quinolin-4-amine], the IC50 lay within 10 to 100 nM. With `CCN1C(=O)COc2ccc(Nc3nc4ccc(S(C)(=O)=O)cc4c4c[nH]nc34)cc21` [Example 342, 4-ethyl-6-((8-(methylsulfonyl)-2H-pyrazolo[3,4-c]quinolin-4-yl)amino)-2H-benzo[b][1,4]oxazin-3(4H)-one], the IC50 fell in the range of 10 to 100 nM. `Fc1cccc2nc(Nc3ccc(CN4CCOCC4)cc3)c3[nH]ncc3c12` [Example 30, 9-fluoro-N-(4-(morpholinomethyl)phenyl)-3H-pyrazolo[3,4-c]quinolin-4-amine]: the IC50 lay in the range of 100 to 1000 nM.

Take `O=C(c1ccc(Nc2nc3cccc(F)c3c3cn[nH]c23)cc1)N1CCOCC1` [Example 29, (4-((9-fluoro-3H-pyrazolo[3,4-c]quinolin-4-yl)amino)phenyl)(morpholino)methanone]: the IC50 was in the range of 100 to 1000 nM. Next, `COc1cccc2nc(Nc3c(C)nn(C(C)C)c3C)c3[nH]ncc3c12` [Example 234, N-(1-isopropyl-3,5-dimethyl-1H-pyrazol-4-yl)-9-methoxy-3H-pyrazolo[3,4-c]quinolin-4-amine]: 100 to 1000 nM.
